13 cell lines from the supplement of paper PMC10307832 can be followed below.

What all share (experiment): relative viability (nuclei count vs DMSO), 5 days (fraction); higher = more cells survive
Compound in the experiment “NVP-TAE684 + Bortezomib”: COc1cc(N2CCC(N3CCN(C)CC3)CC2)ccc1Nc1ncc(Cl)c(Nc2ccccc2S(=O)(=O)C(C)C)n1 [NVP-TAE684] + CC(C)C[C@H](NC(=O)[C@H](Cc1ccccc1)NC(=O)c1cnccn1)B(O)O [Bortezomib] (partner 0.002 µM)
In outline:
(§1)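 Lung cancer cell lines in 1536-well plates were dosed by pin tool the day after seeding, either with one drug alone or with a fixed anchor-drug dose plus five library-drug doses (not always all listed) in √10 steps. After 5 days, cells were fixed and their nuclei stained in one step (final 0.05% Triton X-100, 1% formaldehyde, 1 ug/ml Hoechst), then counted on 4× images. Relative viability is the nuclei count in treated wells divided by that in vehicle wells. Values are medians of duplicate plates.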

Compound in the experiment “NVP-TAE684 + Crizotinib”: COc1cc(N2CCC(N3CCN(C)CC3)CC2)ccc1Nc1ncc(Cl)c(Nc2ccccc2S(=O)(=O)C(C)C)n1 [NVP-TAE684] + C[C@@H](Oc1cc(-c2cnn(C3CCNCC3)c2)cnc1N)c1c(Cl)ccc(F)c1Cl [Crizotinib] (partner 1 µM)
A digest of the protocol: as §1

Compound in the experiment “Vandetanib + Bortezomib”: COc1cc2/c(=N/c3ccc(Br)cc3F)nc[nH]c2cc1OCC1CCN(C)CC1 [Vandetanib] + CC(C)C[C@H](NC(=O)[C@H](Cc1ccccc1)NC(=O)c1cnccn1)B(O)O [Bortezomib] (partner 0.002 µM)
In outline:
as §1

Compound in the experiment “NVP-TAE684 + Palbociclib”: COc1cc(N2CCC(N3CCN(C)CC3)CC2)ccc1Nc1ncc(Cl)c(Nc2ccccc2S(=O)(=O)C(C)C)n1 [NVP-TAE684] + CC(=O)c1c(C)c2cnc(Nc3ccc(N4CCNCC4)cn3)nc2n(C2CCCC2)c1=O [Palbociclib] (partner 0.5 µM)
A digest of the protocol:
as §1

Compound in the experiment “Vandetanib + OSI-027”: COc1cc2/c(=N/c3ccc(Br)cc3F)nc[nH]c2cc1OCC1CCN(C)CC1 [Vandetanib] + COc1cccc2cc(-c3nc([C@H]4CC[C@H](C(=O)O)CC4)n4ncnc(N)c34)[nH]c12 [OSI-027] (partner 0.5 µM)
A digest of the protocol:
as §1

In the case of Calu-6, the relative viability is 0.875 with NVP-TAE684 + Bortezomib (first compound 0.2 µM); 0.918 with NVP-TAE684 + Bortezomib (first compound 0.6325 µM); 0.435 with NVP-TAE684 + Bortezomib (first compound 2 µM); 0.73 with NVP-TAE684 + Crizotinib (first compound 0.2 µM); 0.687 with NVP-TAE684 + Crizotinib (first compound 0.6325 µM); 0.285 in the experiment with NVP-TAE684 + Crizotinib (first compound 2 µM). In addition, the relative viability with Vandetanib + Bortezomib (first compound 0.02 µM) stood at 1.15; with Vandetanib + Bortezomib (first compound 0.06325 µM), 0.933; with Vandetanib + Bortezomib (first compound 0.2 µM), 1.09; with Vandetanib + Bortezomib (first compound 0.6325 µM), 0.959; with Vandetanib + Bortezomib (first compound 2 µM), 0.941.
For the cell line NCI-H2170, the relative viability with NVP-TAE684 + Palbociclib (first compound 0.2 µM) turned out to be 0.33; in the experiment with NVP-TAE684 + Palbociclib (first compound 0.6325 µM) it was 0.382; in the experiment with NVP-TAE684 + Palbociclib (first compound 2 µM), 0.375; with NVP-TAE684 + Crizotinib (first compound 0.2 µM) it was 1.31; with NVP-TAE684 + Crizotinib (first compound 0.6325 µM), 1.15; with NVP-TAE684 + Crizotinib (first compound 2 µM), 0.996. Also, the relative viability stood at 0.641 with Vandetanib + OSI-027 (first compound 0.02 µM); 0.673 with Vandetanib + OSI-027 (first compound 0.06325 µM); 0.727 in the experiment with Vandetanib + OSI-027 (first compound 0.2 µM); 0.655 with Vandetanib + OSI-027 (first compound 0.6325 µM); 0.811 with Vandetanib + OSI-027 (first compound 2 µM).
As to NCI-H2342, the relative viability came to 0.499 with NVP-TAE684 + Palbociclib (first compound 0.2 µM); 0.459 with NVP-TAE684 + Palbociclib (first compound 0.6325 µM); 0.457 in the experiment with NVP-TAE684 + Palbociclib (first compound 2 µM); 0.616 with Vandetanib + OSI-027 (first compound 0.02 µM); 0.597 with Vandetanib + OSI-027 (first compound 0.06325 µM); 0.644 with Vandetanib + OSI-027 (first compound 0.2 µM). Besides, the relative viability with Vandetanib + OSI-027 (first compound 0.6325 µM) was 0.669; with Vandetanib + OSI-027 (first compound 2 µM), 0.591.
For the cell line NCI-H1395, the relative viability stood at 0.618 with NVP-TAE684 + Palbociclib (first compound 0.2 µM); 0.639 in the experiment with NVP-TAE684 + Palbociclib (first compound 0.6325 µM); 0.54 with NVP-TAE684 + Palbociclib (first compound 2 µM); 0.614 with Vandetanib + OSI-027 (first compound 0.02 µM); 0.65 with Vandetanib + OSI-027 (first compound 0.06325 µM); 0.665 with Vandetanib + OSI-027 (first compound 0.2 µM). The relative viability with Vandetanib + OSI-027 (first compound 0.6325 µM) stood at 0.526; with Vandetanib + OSI-027 (first compound 2 µM) it was 0.588.
Consider NCI-H1563, for which the relative viability in the experiment with NVP-TAE684 + Bortezomib (first compound 0.6325 µM) was 0.755; with NVP-TAE684 + Bortezomib (first compound 2 µM), 0.725; with NVP-TAE684 + Crizotinib (first compound 0.2 µM), 0.771; with NVP-TAE684 + Crizotinib (first compound 0.6325 µM), 0.79; with NVP-TAE684 + Crizotinib (first compound 2 µM), 0.651; with Vandetanib + Bortezomib (first compound 0.02 µM), 0.821. Besides, the relative viability was determined as 0.807 with Vandetanib + Bortezomib (first compound 0.06325 µM); 1.12 with Vandetanib + Bortezomib (first compound 0.2 µM); 0.797 with Vandetanib + Bortezomib (first compound 0.6325 µM); 0.845 with Vandetanib + Bortezomib (first compound 2 µM); 0.79 in the experiment with Vandetanib + OSI-027 (first compound 0.02 µM); 0.8 with Vandetanib + OSI-027 (first compound 0.06325 µM). Further, the relative viability in the experiment with Vandetanib + OSI-027 (first compound 0.2 µM) is 0.743; with Vandetanib + OSI-027 (first compound 0.6325 µM) it was 0.76; with Vandetanib + OSI-027 (first compound 2 µM) it was 0.734.
Consider EBC-1, for which the relative viability with NVP-TAE684 + Bortezomib (first compound 0.2 µM) was found to be 0.515; in the experiment with NVP-TAE684 + Bortezomib (first compound 0.6325 µM) it was 0.544; in the experiment with NVP-TAE684 + Bortezomib (first compound 2 µM), 0.341; with NVP-TAE684 + Crizotinib (first compound 0.2 µM), 0.208; with NVP-TAE684 + Crizotinib (first compound 0.6325 µM) it was 0.174; in the experiment with NVP-TAE684 + Crizotinib (first compound 2 µM), 0.155. The relative viability with Vandetanib + Bortezomib (first compound 0.02 µM) stood at 0.635; with Vandetanib + Bortezomib (first compound 0.06325 µM) it was 0.559; with Vandetanib + Bortezomib (first compound 0.2 µM) it was 0.647; with Vandetanib + Bortezomib (first compound 0.6325 µM), 0.577; with Vandetanib + Bortezomib (first compound 2 µM), 0.505.
Take NCI-H1793: the relative viability in the experiment with NVP-TAE684 + Palbociclib (first compound 0.2 µM) worked out at 0.297; with NVP-TAE684 + Palbociclib (first compound 0.6325 µM), 0.302; with NVP-TAE684 + Palbociclib (first compound 2 µM), 0.239; in the experiment with Vandetanib + OSI-027 (first compound 0.02 µM), 0.302; with Vandetanib + OSI-027 (first compound 0.06325 µM), 0.25; with Vandetanib + OSI-027 (first compound 0.2 µM), 0.238. Besides, the relative viability is 0.292 with Vandetanib + OSI-027 (first compound 0.6325 µM) and 0.274 in the experiment with Vandetanib + OSI-027 (first compound 2 µM).
As to NCI-H358, the relative viability stood at 0.125 with NVP-TAE684 + Palbociclib (first compound 0.2 µM); 0.121 in the experiment with NVP-TAE684 + Palbociclib (first compound 0.6325 µM); 0.0895 in the experiment with NVP-TAE684 + Palbociclib (first compound 2 µM); 0.441 in the experiment with NVP-TAE684 + Crizotinib (first compound 0.2 µM); 0.347 with NVP-TAE684 + Crizotinib (first compound 0.6325 µM); 0.081 with NVP-TAE684 + Crizotinib (first compound 2 µM). Also, the relative viability came out at 0.706 in the experiment with Vandetanib + OSI-027 (first compound 0.02 µM); 0.569 in the experiment with Vandetanib + OSI-027 (first compound 0.06325 µM); 0.678 with Vandetanib + OSI-027 (first compound 0.2 µM); 0.504 in the experiment with Vandetanib + OSI-027 (first compound 0.6325 µM); 0.307 with Vandetanib + OSI-027 (first compound 2 µM).
As for SW 900, the relative viability with NVP-TAE684 + Palbociclib (first compound 0.2 µM) was 0.576; with NVP-TAE684 + Palbociclib (first compound 0.6325 µM), 0.456; with NVP-TAE684 + Palbociclib (first compound 2 µM), 0.43; with Vandetanib + OSI-027 (first compound 0.02 µM), 0.456; with Vandetanib + OSI-027 (first compound 0.06325 µM) it was 0.486; with Vandetanib + OSI-027 (first compound 0.2 µM) it was 0.315. The relative viability is 0.622 with Vandetanib + OSI-027 (first compound 0.6325 µM) and 0.713 with Vandetanib + OSI-027 (first compound 2 µM).
Regarding NCI-H596, the relative viability in the experiment with NVP-TAE684 + Bortezomib (first compound 0.2 µM) was determined as 1.3; in the experiment with NVP-TAE684 + Bortezomib (first compound 0.6325 µM), 0.919; with NVP-TAE684 + Crizotinib (first compound 0.2 µM), 0.974; with NVP-TAE684 + Crizotinib (first compound 0.6325 µM), 0.886; in the experiment with NVP-TAE684 + Crizotinib (first compound 2 µM) it was 0.717; with Vandetanib + Bortezomib (first compound 0.02 µM) it was 0.998. The relative viability came out at 1 with Vandetanib + Bortezomib (first compound 0.06325 µM); 0.965 with Vandetanib + Bortezomib (first compound 0.2 µM); 0.717 with Vandetanib + Bortezomib (first compound 0.6325 µM); 0.958 with Vandetanib + Bortezomib (first compound 2 µM); 0.751 in the experiment with Vandetanib + OSI-027 (first compound 0.02 µM); 0.674 in the experiment with Vandetanib + OSI-027 (first compound 0.06325 µM). For the same cell line, the relative viability in the experiment with Vandetanib + OSI-027 (first compound 0.2 µM) was found to be 0.665; in the experiment with Vandetanib + OSI-027 (first compound 0.6325 µM), 0.726; in the experiment with Vandetanib + OSI-027 (first compound 2 µM), 0.74.
Turning to A549, the figures for the relative viability with NVP-TAE684 + Crizotinib (first compound 0.2 µM), with NVP-TAE684 + Crizotinib (first compound 0.6325 µM) and in the experiment with NVP-TAE684 + Crizotinib (first compound 2 µM) were 0.709, 0.458 and 0.0727, respectively.
As for NCI-H1648, the relative viability with NVP-TAE684 + Palbociclib (first compound 0.2 µM) came to 0.241; with NVP-TAE684 + Palbociclib (first compound 0.6325 µM), 0.295; with NVP-TAE684 + Palbociclib (first compound 2 µM), 0.202; in the experiment with Vandetanib + OSI-027 (first compound 0.02 µM), 0.253; in the experiment with Vandetanib + OSI-027 (first compound 0.06325 µM), 0.276; with Vandetanib + OSI-027 (first compound 0.2 µM), 0.28. The relative viability with Vandetanib + OSI-027 (first compound 0.6325 µM) amounted to 0.258; with Vandetanib + OSI-027 (first compound 2 µM), 0.252.
LK-2: the relative viability came to 0.614 with NVP-TAE684 + Palbociclib (first compound 0.2 µM); 0.756 with NVP-TAE684 + Palbociclib (first compound 0.6325 µM); 0.296 with NVP-TAE684 + Palbociclib (first compound 2 µM); 0.228 in the experiment with NVP-TAE684 + Crizotinib (first compound 0.2 µM); 0.223 in the experiment with NVP-TAE684 + Crizotinib (first compound 0.6325 µM); 0.203 in the experiment with NVP-TAE684 + Crizotinib (first compound 2 µM). For the same cell line, the relative viability with Vandetanib + OSI-027 (first compound 0.02 µM) is 0.243; with Vandetanib + OSI-027 (first compound 0.06325 µM), 0.213; with Vandetanib + OSI-027 (first compound 0.2 µM), 0.203; in the experiment with Vandetanib + OSI-027 (first compound 0.6325 µM) it was 0.197; with Vandetanib + OSI-027 (first compound 2 µM), 0.227.
